The numbers were not newly measured in patent US4407746A, “Cyclohexyl and phenyl substituted enkephalins” (G. D. Searle & Co., priority 1981, dated 1983), which cites them from elsewhere.

The subject of one data set is rat. To be noted: injected directly into the brain of the rat; Belluzi et al. 1976.
Data set [1] concerns brain opiate receptor sites. Particulars: partially purified brain opiate receptor sites; Bradberry et al. 1976.

With methionine enkephalin, the analgesic activity result in the data set on rat was “weak, fleeting analgesic activity”. Besides, in data set [1], the “binding to brain opiate receptor sites” value was “binds sterospecifically”.
